Assay results reported in publication PMC12463120, “Phenylalanine‐Based DNA‐Encoded Chemical Libraries for the Discovery of Potent and Selective Small Organic Ligands Against Markers of Cancer and Immune Cells” (Advanced Science, 2025).

Target: T1, NKG2D-Fc (Homo sapiens, UniProt P26718)
T1 construct: the extracellular domain of NKG2D was fused with an IgG Fc fragment; made in house; host or cells: CHO cells
T1 sequence (P26718 73-216 limits assumed): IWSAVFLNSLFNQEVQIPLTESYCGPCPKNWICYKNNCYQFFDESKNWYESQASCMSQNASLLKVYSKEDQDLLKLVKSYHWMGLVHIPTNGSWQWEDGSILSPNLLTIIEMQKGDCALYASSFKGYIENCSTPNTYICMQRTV
Assay: ELISA affinity against NKG2D-Fc
Format: binding
Conditions: FITC derivatives; read-out: dissociation constant (KD) against NKG2D-Fc by ELISA
Protocol: Selection results were decoded with C++^[ [61] ^] and visualized using MATLAB R2019b (MathWorks). EFs were calculated by dividing the DNA sequence counts for each hit compound by the average DNA sequence count from the corresponding DEL screening. Additionally, Z‐score values were calculated following methods previously published,^[ [60] ^] as present in Supporting Information. Hit compounds with high EFs in the target protein selections and low EFs in the negative controls (anti‐target and streptavidin selections) were selected for hit validation activities. All compounds were synthesized using either solid‐phase peptide synthesis or solution‐phase methodologies. Affinities of fluorescein‐bearing hits were determined by FP or ELISA measurements. […] ACP3 colorimetric inhibition assay was performed with serially diluted compounds at a fixed concentration (5 mM in PBS) of para‐nitrophenyl phosphate as substrate. Binding kinetics were assessed on a Biacore X100 instrument with the target protein immobilized on a CM5 chip at 4′000 RUs. Cell binding of fluorescent ligands was evaluated using flow cytometry against antigen‐positive and antigen‐negative (wild‐type) cancer cells. in vitro tissue uptake of ^177Lu‐labelled DOTAGA PSMA‐radioligands was measured via autoradiography. […]
Grenier 384 transparent, flat-bottom well plates were used. Each test compound was measured in triplicate. […]

**Q.** How did the Kd turn out when `CC(C)Oc1ccc(-c2cccc(C[C@H](NC(=O)c3ccccc3-c3ccc(C(F)(F)F)cc3)C(=O)N[C@@H](CCCCNC(=S)Nc3ccc4c(c3)C(=O)OC43c4ccc(O)cc4Oc4cc(O)ccc43)C(=O)O)c2)c(F)c1` [compound 30] was run?
**A.** 133 nM
